Experimental data from patent publication US5087439A, “Paramagnetic metal-diethylenetriamine-pentaacetic acid partial amide complexes for magnetic resonance imaging” (Salutar, Inc., priority 1989, dated 1992).

Key:
[1] = Relaxivity (T1, T2) of the compound in human plasma at 10 MHz (37° C.); format: physicochemical; settings: for T1 Plasma / T2 Plasma: 10 MHz, 37° C.
Protocol: (§1) Relaxivity of the compound in water and in human plasma at 10 MHz (37° C.) (for practical purposes, the lower the T1 in a given part of the body, the brighter the image in MR imaging):
(§2) *T1 and T2 are relaxtion times in msec.

[2] = Relaxivity (T1, T2) of the compound in water at 10 MHz (37° C.); format: physicochemical
Protocol: as §1, §2

[3] = vs prior art compound, same dosage, from blood T1 at 20 minutes
Protocol: Pharmacokinetics of the compound in a pure breed beagle dog
A male dog was injected with the test compounds at 100 μ mol/kg. Blood was drawn at the indicated times. The plasma was separated and the relaxivity measured.

[4] = Organ distribution of the compound in male rabbits (organ T1 measured in vitro at 5 MHz); settings: 100 μmol/kg; for T1, Skeletal Muscle: male rabbits, 15 min post injection, 5 MHz
Protocol: The test compounds were injected into male rabbits at 100 μmol/kg. The rabbits were sacrificed at 15 minutes post injection and the relaxivity of internal organs was measured in vitro at 5 MHz.
The test compounds were injected into male rabbits at 100 μ mol/kg. The rabbits were sacrificed at 15 minutes post injection and the relaxivity of internal organs was measured in vitro at 5 MHz.

## CCCCCCNC(=O)CN(CCN(CCN(CC(=O)[O-])CC(=O)NCCCCCC)CC(=O)[O-])CC(=O)[O-].[Gd+3] [Gd DTPA-bishexylamide]
[1]; 1.17 × 10^-3 M
  T1 Plasma: 83 ms
  T2 Plasma: 71 ms
[1]; 1.46 × 10^-4 M
  T1 Plasma: 403 ms
[1]; 1.82 × 10^-5 M
  T1 Plasma: 1087 ms
[1]; 2.34 × 10^-3 M
  T1 Plasma: 48 ms
  T2 Plasma: 39 ms
[1]; 2.92 × 10^-4 M
  T1 Plasma: 249 ms
[1]; 3.68 × 10^-5 M
  T1 Plasma: 881 ms
[1]; 4.67 × 10^-3 M
  T1 Plasma: 26 ms
  T2 Plasma: 21 ms
[1]; 5.84 × 10^-4 M
  T1 Plasma: 145 ms
  T2 Plasma: 123 ms
[1]; 7.30 × 10^-5 M
  T1 Plasma: 622 ms
[1]; 9.12 × 10^-6 M
  T1 Plasma: 1220 ms
[1]; 9.34 × 10^-3 M
  T1 Plasma: 15 ms
  T2 Plasma: 10 ms
[1]; vs Gd DTPA-di(N-methylglucamine), human plasma
  proton relaxation in plasma compared with the prior art compound: almost three times better
[2]; 1.17 × 10^-3 M
  T1 Water: 159 ms
  T2 Water: 147 ms
[2]; 1.46 × 10^-4 M
  T1 Water: 947 ms
[2]; 2.34 × 10^-3 M
  T1 Water: 81 ms
  T2 Water: 76 ms
[2]; 2.92 × 10^-4 M
  T1 Water: 561 ms
[2]; 4.67 × 10^-3 M
  T1 Water: 42 ms
  T2 Water: 36 ms
[2]; 5.84 × 10^-4 M
  T1 Water: 309 ms
[2]; 7.30 × 10^-5 M
  T1 Water: 1374 ms
[2]; 9.34 × 10^-3 M
  T1 Water: 23 ms
  T2 Water: 18 ms
[3]
  improvement in image signal intensity: two-fold
[4]
  T1, Skeletal Muscle: 397 ms

## C[NH2+]C[C@H](O)[C@@H](O)[C@H](O)[C@H](O)CO.C[NH2+]C[C@H](O)[C@@H](O)[C@H](O)[C@H](O)CO.O=C([O-])CN(CCN(CC(=O)[O-])CC(=O)[O-])CCN(CC(=O)[O-])CC(=O)[O-].[Gd+3] [Gd DTPA-di(N-methylglucamine), reference compound]
[1]; 1.56 × 10^-3 M
  T1 Plasma: 134 ms
  T2 Plasma: 116 ms
[1]; 1.95 × 10^-4 M
  T1 Plasma: 636 ms
[1]; 3.13 × 10^-3 M
  T1 Plasma: 69 ms
  T2 Plasma: 61 ms
[1]; 3.91 × 10^-4 M
  T1 Plasma: 405 ms
[1]; 6.25 × 10^-3 M
  T1 Plasma: 39 ms
  T2 Plasma: 31 ms
[1]; 7.81 × 10^-4 M
  T1 Plasma: 240 ms
[1]; 9.77 × 10^-5 M
  T1 Plasma: 877 ms
[2]; 1.56 × 10^-3 M
  T1 Water: 163 ms
  T2 Water: 155 ms
[2]; 1.95 × 10^-4 M
  T1 Water: 1015 ms
[2]; 3.13 × 10^-3 M
  T1 Water: 83 ms
  T2 Water: 76 ms
[2]; 3.91 × 10^-4 M
  T1 Water: 582 ms
[2]; 6.25 × 10^-3 M
  T1 Water: 40 ms
  T2 Water: 35 ms
[2]; 7.81 × 10^-4 M
  T1 Water: 309 ms
[4]
  T1, Skeletal Muscle: 405 ms
[4]; rabbits, 15 min, heart and liver
  change in spin lattice (T1) relaxation in the heart and liver: fails to produce any change
